Test system: BJeLR
Experiment: Modulatory profiling: Alamar Blue viability, lethal compound cotreated with death modulator (EC50, AUC)
Type: cell-based, human
Set-up: AUC, modulator BJ.Gd3+ / AUC, modulator BJ.LNAME / AUC, modulator BJ.Lmin / AUC, modulator BJ.3MA / AUC, modulator BJ.ALLN / AUC, modulator BJ.Boc D / AUC, modulator BJ.CHX / AUC, modulator BJ.Co2+ / AUC, modulator BJ.Nec-1 / AUC, modulator BJ.Pepstatin / AUC, modulator BJ.TLCK / AUC, modulator BJ.atoc / AUC, modulator BJ.trolox / AUC, modulator BJ.zVAD: unit not given beside the values
Conditions: for AUC, modulator BJ.3MA / AUC, modulator BJ.ALLN / AUC, modulator BJ.Boc D / AUC, modulator BJ.CHX / AUC, modulator BJ.Co2+ / AUC, modulator BJ.DPQ / AUC, modulator BJ.Gd3+ / AUC, modulator BJ.LNAME / AUC, modulator BJ.Lmin/NAD+ / AUC, modulator BJ.Lmin / AUC, modulator BJ.NAD+ / AUC, modulator BJ.NMMA / AUC, modulator BJ.Nec-1 / AUC, modulator BJ.Pepstatin / AUC, modulator BJ.TLCK / AUC, modulator BJ.atoc / AUC, modulator BJ.trolox / AUC, modulator BJ.zVAD: BJeLR cells, modulatory profile value (AUC); for AUC, modulator BJ.3MA: lethal compound cotreated with modulator 3MA; for AUC, modulator BJ.ALLN: lethal compound cotreated with modulator ALLN; for AUC, modulator BJ.Boc D: lethal compound cotreated with modulator Boc D; for AUC, modulator BJ.CHX: lethal compound cotreated with modulator CHX; for AUC, modulator BJ.Co2+: lethal compound cotreated with modulator Co2+; for AUC, modulator BJ.DPQ: lethal compound cotreated with modulator DPQ; for AUC, modulator BJ.Gd3+: lethal compound cotreated with modulator Gd3+; for AUC, modulator BJ.LNAME: lethal compound cotreated with modulator LNAME; for AUC, modulator BJ.Lmin/NAD+: lethal compound cotreated with modulator Lmin/NAD+; for AUC, modulator BJ.Lmin: lethal compound cotreated with modulator Lmin; for AUC, modulator BJ.NAD+: lethal compound cotreated with modulator NAD+; for AUC, modulator BJ.NMMA: lethal compound cotreated with modulator NMMA; for AUC, modulator BJ.Nec-1: lethal compound cotreated with modulator Nec-1; for AUC, modulator BJ.Pepstatin: lethal compound cotreated with modulator Pepstatin; for AUC, modulator BJ.TLCK: lethal compound cotreated with modulator TLCK; for AUC, modulator BJ.atoc: lethal compound cotreated with modulator atoc; for AUC, modulator BJ.trolox: lethal compound cotreated with modulator trolox; for AUC, modulator BJ.zVAD: lethal compound cotreated with modulator zVAD; for EC50: Homo sapiens, BJeLR, 48 h
[1] = cotreated with antioxidant Trolox
[2] = cotreated with antioxidant atoc
[3] = cotreated with iron-chelator Lmim

| SMILES | AUC, modulator BJ.3MA | AUC, modulator BJ.ALLN | AUC, modulator BJ.Boc D | AUC, modulator BJ.CHX | AUC, modulator BJ.Co2+ | AUC, modulator BJ.DPQ | AUC, modulator BJ.Gd3+ | AUC, modulator BJ.LNAME | AUC, modulator BJ.Lmin/NAD+ | AUC, modulator BJ.Lmin | AUC, modulator BJ.NAD+ | AUC, modulator BJ.NMMA | AUC, modulator BJ.Nec-1 | AUC, modulator BJ.Pepstatin | AUC, modulator BJ.TLCK | AUC, modulator BJ.atoc | AUC, modulator BJ.trolox | AUC, modulator BJ.zVAD | EC50 (DMSO) | EC50 (cotreated with Lmim_NAD) | other results |
| --- | --- | --- | --- | --- | --- | --- | --- | --- | --- | --- | --- | --- | --- | --- | --- | --- | --- | --- | --- | --- | --- |
| COC(C)(C)C#CC(=O)c1cccc2ccccc12 [CIL34] | 0.07701 | −0.04374 | −0.02462 | 0.1215 | 0.07311 | 0.03951 | −0.032 | −0.01631 | 0.04257 | −0.0234 | −0.004372 | 0.03326 | −0.03852 | 0.04418 | −0.1073 | 0.05781 | 0.007029 | 0.005997 |  |  |  |
| CN(C)CCCOS(=O)(=O)c1ccc(N2CCC(c3ccc(Cl)cc3)=N2)cc1 [CIL40] | 0.1131 | −0.02592 | −0.05607 | −0.1423 | 0.03348 | 0.01887 | −0.004738 | 0.002197 | −0.06069 | −0.05273 | 0.005587 | 0.05461 | 0.02442 | −0.01642 | −0.05358 | 0.05022 | 0.03943 | 0.007977 |  |  |  |
| N/C(=N\OC(=O)C12CC3CC(CC(C3)C1)C2)c1ccccc1 [CIL41] | 0.117 | −0.08211 | −0.06374 | −0.0571 | −0.02378 | 0.02161 | −0.006767 | 0.00307 | 0.1504 | 0.2032 | −0.0198 | 0.04219 | 0.09368 | −0.03128 | −0.02463 | 0.2729 | 0.1871 | 0.03607 | 3.17 µM | 22.6 µM | EC50 [1]: 23.2 µM; EC50 [2]: 36.6 µM; EC50 [3]: 22.4 µM |
| O=P(Oc1ccccc1)(Oc1ccccc1)O[C@@H]1C=CS(=O)(=O)C1 [CIL44] | 0.05756 | −0.0588 | −0.03963 | 0.1553 | 0.02387 | 0.05604 | 0.005556 | 0.008981 | −0.04975 | 0.03065 | −0.04167 | 0.02894 | −0.01119 | 0.002455 | −0.03963 | 0.009119 | −0.03989 | −0.01682 |  |  |  |
| COc1ccc(-n2nnnc2S(=O)(=O)CC(=O)N2CCCCC2)cc1 [CIL48] | 0.09789 | −0.1008 | −0.02225 | 0.1619 | 0.05392 | 0.01112 | −0.004307 | −0.01039 | 0.06326 | −0.02664 | −0.04246 | 0.01412 | −0.04434 | −0.01271 | −0.01339 | 0.01164 | −0.03407 | −0.01807 |  |  |  |
| O=S(=O)(c1ccc2c(c1)C(=NO)c1cc(S(=O)(=O)N3CCCCC3)ccc1-2)N1CCCCC1 [CIL56, 2,7-bis(piperidin-1-ylsulfonyl)-9H-fluoren-9-one oxime] | 0.1459 | 0.05831 | −0.01043 | −0.07221 | 0.1263 | 0.03219 | 0.004997 | 0.005978 | 0.2194 | 0.1358 | 0.02645 | 0.0004905 | 0.2368 | 0.03545 | 0.1986 |  |  |  | 0.213 µM | 1.3 µM | EC50 [1]: 2.03 µM; EC50 [2]: 2.49 µM; EC50 [3]: 0.925 µM |
| N/C(Cc1ccc(Cl)cc1)=N\OC(=O)c1cccc2ccccc12 [CIL70] | 0.1014 | −0.07036 | 0.002412 | 0.1304 | −0.0004925 | 0.02973 | 0.04884 | −0.006027 | 0.2633 | 0.2062 | 0.03108 | −0.008547 | 0.1293 | 0.07715 | 0.06301 |  |  |  | 1.76 µM | 14.8 µM | EC50 [1]: 7.1 µM; EC50 [2]: 18.6 µM; EC50 [3]: 13.1 µM |
| COC(=O)[C@@H]1Cc2c([nH]c3ccccc23)C(C)(C)N1C(=O)CCl [CIL79] | 0.0798 | 0.02717 | 0.02938 | −0.04651 | 0.1763 | 0.003967 | 0.00956 | 0.01544 | 0.2136 | 0.2049 | −0.00637 | −0.008594 | 0.2258 | 0.04063 | 0.1984 |  |  |  | 0.157 µM | 0.566 µM | EC50 [1]: 8.32 µM; EC50 [2]: 7.93 µM; EC50 [3]: 0.667 µM |

— patent US10947188B2, “Small molecule ferroptosis inducers” (THE TRUSTEES OF COLUMBIA UNIVERSITY IN THE CITY OF NEW YORK, priority 2016, dated 2021)
